The text below walks through data of patent EP4446411A1, “VARIANT SUBTILISIN PROTEASES” (PEACCEL, priority 2023, dated 2024).

In general, Km refers to the substrate concentration at which the rate is half of its maximum.

Changes are numbered by the printed parent chain. Names may count otherwise. *1 amine or outer side, *2 acyl side, *3 side chain or, on linkers, in order; H or OH if unused. Where a SMILES comes first, the peptide text is derived from it. The star is where a group is joined. pNA = O=[N+]([O-])c1ccc(N*)cc1; Suc = O=C(CCC(=O)[*:2])[*:1]

Holding throughout (assay): Kinetic parameters by release of p-nitroaniline from suc-AAPFpNA (absorbance at 410 nm, Michaelis-Menten fit)
Data set [1] addresses T1, wild-type subtilisin of Bacillus lentus (GG36), WT, SEQ ID NO: 2 (Lederbergia lenta, UniProt P29600).
T1 construct: made in house; host or cells: protease deficient Bacillus subtilis 168
T1 sequence (P29600 1-269): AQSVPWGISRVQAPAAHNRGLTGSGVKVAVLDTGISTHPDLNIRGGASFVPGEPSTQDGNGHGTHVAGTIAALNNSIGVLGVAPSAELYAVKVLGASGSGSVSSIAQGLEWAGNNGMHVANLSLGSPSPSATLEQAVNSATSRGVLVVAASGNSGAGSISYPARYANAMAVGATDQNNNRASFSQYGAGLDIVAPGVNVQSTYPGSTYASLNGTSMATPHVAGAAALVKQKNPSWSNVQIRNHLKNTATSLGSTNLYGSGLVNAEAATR
The class given is biochemical. On the procedure:
(§1) Three selected mutants as well as the wild-type and one mutant of the patent application WO1995010591 A1 data set were cloned in a Bacillus vector behind a constitutive APRE promotor and expressed in a protease deficient Bacillus subtilis 168 strain. The transformed strains were grown for 24 hours at 37°C in shake flasks. The subtilisin variants were purified by Ion exchange chromatography followed by […] with a 0-200 mM salt gradient. The activity of the protease variants was determined by the release of the chromophore para-nitroanilide from succinyl-alanine-alanine-proline-phenylalanine-para-nitroanilide (suc-AAPFpNA). The release of the pNA causes an increase in the absorbance at 410 nm, the temporal progression of which is used as a measure of the activity of the enzymes.
(§2) The kinetic parameters kcat and Km of the variants were measured using basically the method described in Bonneau, P. R., Graycar, T. P., Estell, D. A., & Jones, J. B. (1991). Alteration of the specificity of subtilisin BPN'by site-directed mutagenesis in its S1 and S1'binding sites. Journal of the American Chemical Society, 113(3), 1026-1030. A small aliquot of purified subtilisin variant was added to a 96 microtiterplate well containing succinyl-L-Ala-L-Ala-L-Pro-L-Phe-p-nitroanilide (SEQ ID NO: 1) dissolved in 0.1M Tris-HCL, pH 8.6. The reaction progress was measured spectrophotometrically at 25°C by monitoring the absorbance of p-nitroaniline at 410nm. The corresponding experimental values were fit to the Michaelis-Menten equation by a regression algorithm. The kcat/KM ratio was obtained by dividing the resulting values. […] Table 2: kinetic parameters kcat and Km of the variants at pH 8.6
(§3) The kinetic parameters kcat and Km of the variants were also measured using basically the method described in Bonneau, P. R., Graycar, T. P., Estell, D. A., & Jones, J. B. (1991). Alteration of the specificity of subtilisin BPN'by site-directed mutagenesis in its S1 and S1'binding sites. Journal of the American Chemical Society, 113(3), 1026-1030. A small aliquot of purified subtilisin variant was added to a microtiterplate containing suc-AAPFpNA (SEQ ID NO:1) dissolved in 0.1M glycine pH10. The reaction progress was measured spectrophotometrically by monitoring the absorbance of p-nitroaniline at 410nm. The corresponding experimental values were fit to the Michaelis-Menten equation by a regression algorithm. The kcat/Km ratio was obtained by dividing the resulting values. […] Kcat kcat/km are indicated as % compared to the wild-type (100%). Table 3: kinetic parameters kcat and Km of the variants at pH 10

The target of data set [2] is T2, Bacillus lentus subtilisin variant N74D/S99G/V102W/S126G/N198A/N212S/T254P, SEQ ID NO: 5 (Lederbergia lenta, UniProt P29600, N198A/N212S/N74D/S126G/S99G/T254P/V102W).
T2 construct: made in house; host or cells: protease deficient Bacillus subtilis 168
T2 sequence (P29600 1-269 N74D/S99G/V102W/S126G/N198A/N212S/T254P): T1 sequence (P29600 1-269) with N74D, S99G, V102W, S126G, N198A, N212S, T254P
The class given is biochemical. As for the experimental part:
as §1, §2, §3

Data set [3] concerns the target T3, Bacillus lentus subtilisin variant N74D/S97D/S126G/P204I/T254P/S259N, SEQ ID NO: 6 (Lederbergia lenta, UniProt P29600, N74D/P204I/S126G/S259N/S97D/T254P).
T3 construct: made in house; host or cells: protease deficient Bacillus subtilis 168
T3 sequence (P29600 1-269 N74D/S97D/S126G/P204I/T254P/S259N): T1 sequence (P29600 1-269) with N74D, S97D, S126G, P204I, T254P, S259N
It counts as biochemical. On the procedure:
as §1, §2, §3

The target in data set [4] is T4, Bacillus lentus subtilisin variant N74D/S99G/V102W/S126G/D191E/N198G/N212S/T254P, SEQ ID NO: 4 (Lederbergia lenta, UniProt P29600, D191E/N198G/N212S/N74D/S126G/S99G/T254P/V102W).
T4 construct: made in house; host or cells: protease deficient Bacillus subtilis 168
T4 sequence (P29600 1-269 N74D/S99G/V102W/S126G/D191E/N198G/N212S/T254P): T1 sequence (P29600 1-269) with N74D, S99G, V102W, S126G, D191E, N198G, N212S, T254P
The class given is biochemical. As for the experimental part:
as §1, §2, §3

Data set [5] addresses T5, Bacillus lentus subtilisin variant N74D/S101A/V102W (control variant of WO1995010591), SEQ ID NO: 3 (Lederbergia lenta, UniProt P29600, N74D/S101A/V102W).
T5 construct: made in house; host or cells: protease deficient Bacillus subtilis 168
T5 sequence (P29600 1-269 N74D/S101A/V102W): T1 sequence (P29600 1-269) with N74D, S101A, V102W
It counts as biochemical. On the procedure: as §1, §2, §3

Substrate in data set [6]: C[C@H](NC(=O)CCC(=O)O)C(=O)N[C@@H](C)C(=O)N1CCC[C@H]1C(=O)N[C@@H](Cc1ccccc1)C(=O)Nc1ccc([N+](=O)[O-])cc1
It counts as biochemical, Bacillus lentus. As for the experimental part: as §1, §2, §3

The mark [7] stands for this setting: other: 0.1M Tris-HCL, pH 8.6, 25°C, pH 8.6, 25.0 °C.
Where [8] appears, read: other: 0.1M glycine pH10, pH 10.0.

In the case of `C[C@H](NC(=O)CCC(=O)O)C(=O)N[C@@H](C)C(=O)N1CCC[C@H]1C(=O)N[C@@H](Cc1ccccc1)C(=O)Nc1ccc([N+](=O)[O-])cc1` [succinyl-L-Ala-L-Ala-L-Pro-L-Phe-p-nitroanilide] (Suc-AAPF-pNA), the “kcat pH 8.6” value is recorded as 100 % of wild-type in data set [1] (0.1M Tris-HCL, pH 8.6, 25°C); 503 % of wild-type in data set [2] (0.1M Tris-HCL, pH 8.6, 25°C); 55 % of wild-type in data set [3] (0.1M Tris-HCL, pH 8.6, 25°C); 579 % of wild-type in data set [4] (0.1M Tris-HCL, pH 8.6, 25°C); 638 % of wild-type in data set [5] (0.1M Tris-HCL, pH 8.6, 25°C). Further, the “kcat/Km pH 8.6” value in data set [1] (0.1M Tris-HCL, pH 8.6, 25°C) is 100 % of wild-type; in data set [2] (0.1M Tris-HCL, pH 8.6, 25°C), 6362 % of wild-type; in data set [3] (0.1M Tris-HCL, pH 8.6, 25°C), 51 % of wild-type; in data set [4] (0.1M Tris-HCL, pH 8.6, 25°C), 3326 % of wild-type; in data set [5] (0.1M Tris-HCL, pH 8.6, 25°C), 1392 % of wild-type. Also, the “kcat pH 10” value was 100 %half-life of wild-type in data set [1] (0.1M glycine pH10); 723 %half-life of wild-type in data set [2] (0.1M glycine pH10); 37 %half-life of wild-type in data set [3] (0.1M glycine pH10); 719 %half-life of wild-type in data set [4] (0.1M glycine pH10); 554 %half-life of wild-type in data set [5] (0.1M glycine pH10). In addition, the “kcat/Km pH10” value in data set [1] (0.1M glycine pH10) is given as 100 % wild-type; in data set [2] (0.1M glycine pH10), 10827 % wild-type; in data set [3] (0.1M glycine pH10), 97 % wild-type; in data set [4] (0.1M glycine pH10), 5100 % wild-type; in data set [5] (0.1M glycine pH10), 2263 % wild-type.

B1: wild-type subtilisin of Bacillus lentus (GG36), WT, SEQ ID NO: 2 (Lederbergia lenta) (protein)
chain: T1 sequence (P29600 1-269)
notes: made in house; host or cells: protease deficient Bacillus subtilis 168
Turning to B1, the Km worked out at 630 µM in data set [6] (setting [7]) and 1340 µM in data set [6] (setting [8]).

B2: Bacillus lentus subtilisin variant N74D/S99G/V102W/S126G/N198A/N212S/T254P, SEQ ID NO: 5 (Lederbergia lenta; N198A/N212S/N74D/S126G/S99G/T254P/V102W) (protein)
chain: T1 sequence (P29600 1-269) with N74D, S99G, V102W, S126G, N198A, N212S, T254P
notes: as for B1
Regarding B2, the figures for the Km in data set [6] (setting [7]) and in data set [6] (setting [8]) were 50 µM and 90 µM, respectively.

B3: Bacillus lentus subtilisin variant N74D/S99G/V102W/S126G/D191E/N198G/N212S/T254P, SEQ ID NO: 4 (Lederbergia lenta; … (protein)
chain: T1 sequence (P29600 1-269) with N74D, S99G, V102W, S126G, D191E, N198G, N212S, T254P
notes: as for B1
As to B3, the Michaelis-Menten constant (Km) in data set [6] (setting [7]) stood at 110 µM; in data set [6] (setting [8]), 190 µM.

B4: Bacillus lentus subtilisin variant N74D/S101A/V102W (control variant of WO1995010591), SEQ ID NO: 3 (Lederbergia lenta; N74D/S101A/V102W) (protein)
chain: T1 sequence (P29600 1-269) with N74D, S101A, V102W
notes: as for B1
Turning to B4, the Km was 290 µM in data set [6] (setting [7]) and 330 µM in data set [6] (setting [8]).

B5: Bacillus lentus subtilisin variant N74D/S97D/S126G/P204I/T254P/S259N, SEQ ID NO: 6 (Lederbergia lenta; N74D/P204I/S126G/S259N/S97D/T254P) (protein)
chain: T1 sequence (P29600 1-269) with N74D, S97D, S126G, P204I, T254P, S259N
notes: as for B1
As to B5, the Km worked out at 660 µM in data set [6] (setting [7]) and 520 µM in data set [6] (setting [8]).
